Structures are written as SMILES.

In the assay the target is T1, Recombinant human CBP containing the bromodomain (CBP-BD (1043-1159)) (Homo sapiens, UniProt Q92793).
T1 construct: Recombinant human CBP bromodomain (CBP-BD (1043-1159)); made in house; host or cells: E. coli BL21-CodonPlus (DE3), modified pET vector
T1 sequence (Q92793 1081-1197): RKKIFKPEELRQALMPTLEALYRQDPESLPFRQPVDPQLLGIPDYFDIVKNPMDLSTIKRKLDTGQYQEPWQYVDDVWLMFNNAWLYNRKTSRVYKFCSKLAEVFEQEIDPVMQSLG
In words: CBP Alphascreen binding assay. Particulars: read-out: CREBBP (CBP) IC50. In short, it runs like this:
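Buffer: 50 mM HEPES pH 7.5, 50 mM NaCl, 0.01% BSA, 0.01% Triton X-100, 2 mM DTT. The signal was normalised to plate controls and fitted with a four-parameter curve to give IC50.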
(In general: Alpha assays give light when donor and acceptor beads are brought close together.)
In general, IC50 refers to the concentration needed to halve the response being measured. As for `Cc1noc(C)c1-c1cnc2c(Cc3ccccn3)cn(-c3ccc(C(=O)O)cc3OC(F)(F)F)c2c1` [P-0159, 4-(6-(3,5-dimethylisoxazol-4-yl)-3-(pyridin-2-ylmethyl)-1H-pyrrolo[3,2-b]pyridin-1-yl)-3-(trifluoromethoxy)benzoic acid], the IC50 is 0.1 to 1000 nM.

Regarding `Cc1noc(C)c1-c1cnc2c(-c3cnn(C)c3)c(C(F)(F)F)n([C@@H](C)c3ccccn3)c2c1` [P-0160, (S)-3,5-dimethyl-4-(3-(1-methyl-1H-pyrazol-4-yl)-1-(1-(pyridin-2-yl)ethyl)-2-(trifluoromethyl)-1H-pyrrolo[3,2-b]pyridin-6-yl)isoxazole], the IC50 lay within 0.1 to 1000 nM.

With `Cc1noc(C)c1-c1cnc2c(-c3cccc(CC(=O)O)c3)c(C(F)(F)F)n([C@@H](C)c3ccccn3)c2c1` [P-0161, (S)-2-(3-(6-(3,5-dimethylisoxazol-4-yl)-1-(1-(pyridin-2-yl)ethyl)-2-(trifluoromethyl)-1H-pyrrolo[3,2-b]pyridin-3-yl)phenyl)acetic acid], the IC50 was 0.1 to 1000 nM.

As for `Cc1noc(C)c1-c1cnc2c(-c3cccc(C(=O)O)c3)c(C(F)(F)F)n([C@@H](C)c3ccccn3)c2c1` [P-0162, (S)-3-(6-(3,5-dimethylisoxazol-4-yl)-1-(1-(pyridin-2-yl)ethyl)-2-(trifluoromethyl)-1H-pyrrolo[3,2-b]pyridin-3-yl)benzoic acid], the IC50 fell in the range of 0.1 to 1000 nM.

With `Cc1noc(C)c1-c1cnc2c(C(O)(C3CC3)C3CC3)cn(-c3ccc(C(=O)O)cc3OC(F)(F)F)c2c1` [P-0163, 4-(3-(dicyclopropyl(hydroxy)methyl)-6-(3,5-dimethylisoxazol-4-yl)-1H-pyrrolo[3,2-b]pyridin-1-yl)-3-(trifluoromethoxy)benzoic acid], the IC50 lay within 0.1 to 1000 nM.

`Cc1noc(C)c1-c1cnc2c(-c3cc(C(=O)O)ccc3Cl)cn(C(C)(c3ccccn3)c3ccccn3)c2c1` [P-0164, 4-chloro-3-(1-(1,1-di(pyridin-2-yl)ethyl)-6-(3,5-dimethylisoxazol-4-yl)-1H-pyrrolo[3,2-b]pyridin-3-yl)benzoic acid]: the IC50 lay in the range of 0.1 to 1000 nM.

In the case of `CCOc1cc(C(=O)O)cc(OCC)c1-n1cc(C(O)(C2CC2)C2CC2)c2ncc(-c3c(C)noc3C)cc21` [P-0165, 4-(3-(dicyclopropyl(hydroxy)methyl)-6-(3,5-dimethylisoxazol-4-yl)-1H-pyrrolo[3,2-b]pyridin-1-yl)-3,5-diethoxybenzoic acid], the IC50 lay in the range of 0.1 to 1000 nM.

With `Cc1noc(C)c1-c1cnc2c(-c3cc(C(=O)O)ccc3C#N)cn(C(C)(c3ccccn3)c3ccccn3)c2c1` [P-0166, 4-cyano-3-(1-(1,1-di(pyridin-2-yl)ethyl)-6-(3,5-dimethylisoxazol-4-yl)-1H-pyrrolo[3,2-b]pyridin-3-yl)benzoic acid], the IC50 lay within 0.1 to 1000 nM.

Take `C#Cc1ccccc1-c1cn(C(C)(c2ccccn2)c2ccccn2)c2cc(-c3c(C)noc3C)cnc12` [P-0167, 4-(1-(1,1-di(pyridin-2-yl)ethyl)-3-(2-ethynylphenyl)-1H-pyrrolo[3,2-b]pyridin-6-yl)-3,5-dimethylisoxazole]: the IC50 lay within 0.1 to 1000 nM.

Take `CCOc1cc(C(=O)O)cc(OCC)c1-n1cc(-c2ccccc2)c2ncc(-c3c(C)noc3C)cc21` [P-0168, 4-(6-(3,5-dimethylisoxazol-4-yl)-3-phenyl-1H-pyrrolo[3,2-b]pyridin-1-yl)-3,5-diethoxybenzoic acid]: the IC50 lay within 0.1 to 1000 nM.

As to `Cc1noc(C)c1-c1cnc2c(-c3ccccc3C#N)cn(C(C)(c3ccccn3)c3ccccn3)c2c1` [P-0169, 2-(1-(1,1-di(pyridin-2-yl)ethyl)-6-(3,5-dimethylisoxazol-4-yl)-1H-pyrrolo[3,2-b]pyridin-3-yl)benzonitrile], the IC50 fell in the range of 0.1 to 1000 nM.

Values taken from patent publication US11446287B2, “Compounds and methods for EP300 or CBP modulation and indications therefor” (Opna Immuno-Oncology SA, priority 2019, dated 2022).
